The results in this text go back to patent US10130617B2, “Chemical compounds” (AstraZeneca AB, priority 2013, dated 2018).

The subject of the assay is HCC1428 LTED cells. The assay is described as follows: HCC1428 Long Term Estrogen Deprived (HCC1428 LTED) Xenograft Efficacy Study. Particulars: 25 mg/kg once daily p.o., after 28 days of dosing. In kind it is in vivo, NSG mice. The protocol:
HCC1428 Long Term Estrogen Deprived (HCC1428 LTED) Xenograft Efficacy Study
After a suitable period of cell culture, HCC1428 LTED cells (1×10^6) were implanted subcutaneously in the hind flank of female immuno-compromised NSG mice (Jackson Labs, USA) that had undergone overectomy. Tumours were measured twice weekly and changes in tumour volume and growth inhibition were determined by bilateral Vernier calliper measurement (length×width) where length was taken to be the longest diameter across the tumour and width the corresponding perpendicular. Tumour volume was calculated using the formula (length×width)×√(length×width)×(π/6). Tumours were measured once weekly after cell implantation until the average size reached 150 mm^3 at which point the mice were placed into randomised test groups, each group containing 10 mice. Treatment with compounds began the day after (day 62 in this study) and once weekly tumour measurement continued. […] Another group of animals was dosed with vehicle p.o. to act as a control.

For the compound `C[C@@H]1Cc2c([nH]c3ccccc23)[C@@H](c2c(F)cc(/C=C/C(=O)O)cc2F)N1CC(C)(C)F` [Example 1, (E)-3-(3,5-Difluoro-4-((1R,3R)-2-(2-fluoro-2-methylpropyl)-3-methyl-2,3,4,9-tetrahydro-1H-pyrido[3,4-b]indol-1-yl)phenyl)acrylic acid], the “decrease in tumour size” value (geometric mean values, control grew by 220 mm^3) amounted to 46 mm^3. The “inhibition of tumour growth” value (P<0.001 by unpaired t-test) was found to be 121%.
